{
  "source": "paper PMC11246312",
  "about": "“Anthracene detoxification by Laccases from indigenous fungal strains Trichoderma lixii FLU1 and Talaromyces pinophilus FLU12” (Biodegradation, 2024)",
  "key": {"TlFLU1L": {"tested_on": "T1, TlFLU1L", "T1 construct": "native secreted enzyme purified from anthracene-induced culture (ammonium sulfate, DEAE, Sephadex G-100); yellow laccase; 44 kDa by SDS-PAGE", "assay": "residual anthracene by UV absorbance at […] nm after ethyl acetate extraction; Michaelis-Menten fit", "format": "biochemical, Trichoderma lixii", "conditions": "no mediator; anthracene 50-400 mg/L, Na-acetate 50 mM pH 5, Tween 80 1%, 30 °C, laccase 3 U, 96 h"}, "TpFLU12L": {"tested_on": "T2, TpFLU12L", "T2 construct": "native secreted enzyme purified from anthracene-induced culture (ammonium sulfate, DEAE, Sephadex G-100); blue laccase", "assay": "residual anthracene by UV absorbance at […] nm after ethyl acetate extraction; Michaelis-Menten fit", "format": "biochemical, Talaromyces pinophilus", "conditions": "no mediator; anthracene 50-400 mg/L, Na-acetate 50 mM pH 5, Tween 80 1%, 30 °C, laccase 3 U, 96 h"}},
  "data": [
    {"compound": "c1ccc2cc3ccccc3cc2c1", "note": "[anthracene]", "values": [
      {"measurement": "Km (mg/L) / TlFLU1", "setting": "TlFLU1L", "value": "173.2 ± 0.06", "unit": "mg/L"},
      {"measurement": "Km (mg/L) / TpFLU12", "setting": "TpFLU12L", "value": "73.3 ± 0.07", "unit": "mg/L"}
    ]}
  ]
}
